Patent US6514946B1, “Macrolide antibiotics and treatment and prophylaxis of pasteurellosis using the same” (Zaidan Hojin Biseibutsu Kagaku Kenkyu Kai, priority 1999, dated 2003)
Values after ≈ are worked out from the molar mass of the structure shown.

Tests used:
[1] = system: S. aureus Smith (virulent strain); test: microbe, parasite or virus in culture; format: cell-based, Staphylococcus aureus; details: S. aureus Smith (virulent strain); Mueller hinton agar
Description: (§1) Test 1; Minimum Inhibition Concentration (MIC)
(§2) MIC was measured, based on the standard method of Japan Society of Chemotherapy, on a BHI agar medium (Brain heart-infusion agar, made by Difco Laboratories Inc.(USA)) with respect to Pasteurella and on a Mueller hinton agar medium (Mueller hinton agar, made by Difco, Laboratories Inc.(USA)) with respect to the other test bacteria in both cases according to the double dilution method.

S. aureus FDA209P = test: Minimum inhibition concentration (MIC), agar double dilution method; format: cell-based, Staphylococcus aureus; details: Mueller hinton agar
Description: as §1, §2

[2] = system: Past haemolytica BBPO102 N811; test: as above; format: cell-based, Pasteurella haemolytica; details: Past haemolytica BBPO102 N811, strain from cattle; BHI agar
Description: as §1, §2

[3] = system: Past haemolytica BAPO103 S801; test: as above; format: cell-based, Pasteurella haemolytica; details: Past haemolytica BAPO103 S801, strain from poultry; BHI agar
Description: as §1, §2

[4] = system: Past. multocida BOPO305 M-17; test: as above; format: cell-based, Pasteurella multocida; details: Past. multocida BOPO305 M-17, strain from a sheep; BHI agar
Description: as §1, §2

[5] = system: Past. multocida BSPO302 No. 6; test: as above; format: cell-based, Pasteurella multocida; details: Past. multocida BSPO302 No. 6, strain from a pig; BHI agar
Description: as §1, §2

E. coli K-12 R-5 = test: as above; format: cell-based, Escherichia coli; details: Mueller hinton agar
Description: as §1, §2

[6] = system: Enterobacter aerogenes ATCC13048; test: as above; format: cell-based; details: Mueller hinton agar
Description: as §1, §2

[7] = system: Staphylococcus aureus 193; test: as above; format: cell-based; details: Mueller hinton agar
Description: as §1, §2

Escherichia coli NIHJ = test: as above; format: cell-based; details: Mueller hinton agar
Description: as §1, §2

[8] = system: Shigella dysenteriae JS11910; test: as above; format: cell-based; details: Shigella dysenteriae JS11910; Mueller hinton agar
Description: as §1, §2

[9] = system: Micrococcus luteus PCI1001; test: as above; format: cell-based; details: Mueller hinton agar
Description: as §1, §2

[10] = system: Salmonella enteritidis 1891; test: as above; format: cell-based; details: Mueller hinton agar
Description: as §1, §2

[11] = system: Klebsiella pneumoniae PCI602; test: as above; format: cell-based; details: Mueller hinton agar
Description: as §1, §2

Serratia marcescens = test: as above; format: cell-based; details: Mueller hinton agar
Description: as §1, §2

Proteus vulgaris OX19 = test: as above; format: cell-based; details: Mueller hinton agar
Description: as §1, §2

[12] = system: Pasteurella haemolytica BBPO101 N791; test: as above; format: cell-based; details: Pasteurella haemolytica BBPO101 N791, strain from cattle; BHI agar
Description: as §1, §2

[13] = system: Bacillus subtilis NRRL B-558; test: as above; format: cell-based; details: Bacillus subtilis NRRL B-558; Mueller hinton agar
Description: as §1, §2

ICR mice = test: Toxicity test, intravenous or subcutaneous injection; format: in vivo
[14] = intravenous injection, 0.25 mg/mouse
[15] = intravenous injection, 0.5 mg/mouse
[16] = intravenous injection, 1.5 mg/mouse
[17] = intravenous injection, 2.0 mg/mouse
[18] = subcutaneous injection, 1.0 mg/mouse
[19] = subcutaneous injection, 2.0 mg/mouse
[20] = subcutaneous injection, 3.0 mg/mouse
[21] = subcutaneous injection, 4.0 mg/mouse

| Compound | MIC [1] [µg/mL] | MIC (S. aureus FDA209P) [µg/mL] | MIC [2] [µg/mL] | MIC [3] [µg/mL] | MIC [4] [µg/mL] | MIC [5] [µg/mL] | MIC (E. coli K-12 R-5) [µg/mL] | MIC [6] [µg/mL] | MIC [7] [µg/mL] | MIC (Escherichia coli NIHJ) [µg/mL] | MIC [8] [µg/mL] | MIC [9] [µg/mL] | MIC [10] [µg/mL] | MIC [11] [µg/mL] | MIC (Serratia marcescens) [µg/mL] | MIC (Proteus vulgaris OX19) [µg/mL] | MIC [12] [µg/mL] | MIC [13] [µg/mL] | also measured |
| --- | --- | --- | --- | --- | --- | --- | --- | --- | --- | --- | --- | --- | --- | --- | --- | --- | --- | --- | --- |
| CCCCCCN(CCCCCC)CC[C@H]1C[C@@H](C)C(=O)/C=C/C(C)=C/[C@H](CN(CCCCCC)CCCCCC)[C@@H](CC)OC(=O)C[C@@H](O)[C@H](C)[C@H]1O[C@@H]1O[C@H](C)C(O)C(N(C)C)C1O (stereo partly shown) [Compound C-2] | 6.25 (≈ 6.69 µM) | 6.25 (≈ 6.69 µM) | 12.5 (≈ 13.4 µM) | 100 (≈ 107 µM) | 50 (≈ 53.5 µM) | 50 (≈ 53.5 µM) | >100 | >100 | 3.13 (≈ 3.35 µM) | >100 | >100 | 6.25 (≈ 6.69 µM) | >100 | >100 | >100 | >100 | 12.5 (≈ 13.4 µM) | 12.5 (≈ 13.4 µM) |  |
| CC[C@H]1OC(=O)C[C@@H](O)[C@H](C)[C@@H](O[C@@H]2O[C@H](C)C(O)C(N(C)C)C2O)[C@@H](CCN2CCCCCC2)C[C@@H](C)C(=O)/C=C/C(C)=C/[C@@H]1CN1CCCCCC1 (stereo partly shown) [Compound C-7] | 3.13 (≈ 4.11 µM) |  | 0.20 (≈ 0.262 µM) |  | 0.10 (≈ 0.131 µM) | 0.39 (≈ 0.512 µM) | 25 (≈ 32.8 µM) | 3.13 (≈ 4.11 µM) |  |  | 1.56 (≈ 2.05 µM) | 0.20 (≈ 0.262 µM) | 0.78 (≈ 1.02 µM) | 0.78 (≈ 1.02 µM) | 12.5 (≈ 16.4 µM) | 3.13 (≈ 4.11 µM) | 0.20 (≈ 0.262 µM) | 6.25 (≈ 8.2 µM) | Dissection finding (ICR mice; [14]): no abnormal finding; Surviving number (ICR mice; [14]): 2/2; Dissection finding (ICR mice; [15]): no abnormal finding; Surviving number (ICR mice; [15]): 1/2 (immediate death); Dissection finding (ICR mice; [16]): no abnormal finding; Surviving number (ICR mice; [16]): 0/2 (immediate death); Dissection finding (ICR mice; [17]): no abnormal finding; Surviving number (ICR mice; [17]): 0/2 (immediate death); Dissection finding (ICR mice; [18]): no abnormal finding; Surviving number / number of used animals (ICR mice; [18]): 2/2; Dissection finding (ICR mice; [19]): no abnormal finding; Surviving number / number of used animals (ICR mice; [19]): 2/2; Dissection finding (ICR mice; [20]): a little decoloring in kidney; Surviving number / number of used animals (ICR mice; [20]): 2/2; Dissection finding (ICR mice; [21]): no abnormal finding; Surviving number / number of used animals (ICR mice; [21]): 0/1 (died after 30 minutes) |
| CC[C@H]1OC(=O)C[C@@H](O)[C@H](C)[C@@H](O[C@@H]2O[C@H](C)C(O)C(N(C)C)C2O)[C@@H](CCN2CCCC2)C[C@@H](C)C(=O)/C=C/C(C)=C/[C@@H]1CN1CCCC1 (stereo partly shown) [Compound C-6] | 25 (≈ 35.4 µM) |  | 1.56 (≈ 2.21 µM) | 25 (≈ 35.4 µM) | 3.13 (≈ 4.43 µM) | 6.25 (≈ 8.85 µM) | >100 | 50 (≈ 70.8 µM) | 25 (≈ 35.4 µM) | 6.25 (≈ 8.85 µM) | 12.5 (≈ 17.7 µM) | 1.56 (≈ 2.21 µM) | 3.13 (≈ 4.43 µM) |  | 100 (≈ 142 µM) |  | 1.56 (≈ 2.21 µM) | 50 (≈ 70.8 µM) |  |
| CC[C@H]1OC(=O)C[C@@H](O)[C@H](C)[C@@H](O[C@@H]2O[C@H](C)C(O)C(N(C)C)C2O)[C@@H](CCN2CCC(C)CC2)C[C@@H](C)C(=O)/C=C/C(C)=C/[C@@H]1CN1CCC(C)CC1 (stereo partly shown) [MP-MT] |  | 1.56 (≈ 2.05 µM) | 0.39 (≈ 0.512 µM) | 3.13 (≈ 4.11 µM) | 0.39 (≈ 0.512 µM) | 0.39 (≈ 0.512 µM) | >100 | 12.5 (≈ 16.4 µM) | 1.56 (≈ 2.05 µM) |  | 6.25 (≈ 8.2 µM) | 0.78 (≈ 1.02 µM) | 3.13 (≈ 4.11 µM) | 3.13 (≈ 4.11 µM) | 50 (≈ 65.6 µM) | 12.5 (≈ 16.4 µM) | 0.39 (≈ 0.512 µM) | 25 (≈ 32.8 µM) |  |
| CC[C@H]1OC(=O)C[C@@H](O)[C@H](C)[C@@H](O[C@@H]2O[C@H](C)C(O)C(N(C)C)C2O)[C@@H](CCN(Cc2ccccc2)Cc2ccccc2)C[C@@H](C)C(=O)/C=C/C(C)=C/[C@@H]1CN(Cc1ccccc1)Cc1ccccc1 (stereo partly shown) [Compound C-5] | 50 (≈ 52.2 µM) | 12.5 (≈ 13 µM) | 50 (≈ 52.2 µM) | >100 | >100 | >100 | >100 | >100 | 12.5 (≈ 13 µM) | >100 | >100 | 6.25 (≈ 6.52 µM) | >100 | >100 | 100 (≈ 104 µM) | >100 | 50 (≈ 52.2 µM) | 50 (≈ 52.2 µM) |  |
